From patent publication EP0163240A2, “Dihydroimidazo[1,2-a]pyrimidine derivatives, methods of preparing said compounds and pharmaceutical compositions constaining said compounds” (priority 1984, dated 1985) come the findings set out here.

Where a name gives a salt, the structure may show the parent alone.

Series [1] concerns vertebral blood flow. Description: Effect on vertebral blood flow. It is filed as in vivo, Adult mongrel dogs. The conditions noted are these: for ED100: dose required to obtain 100% of the increase of blood flow by 100 µg of papaverine hydrochloride, injected in the vertebral artery, anesthetized dogs; for T 1/2: half-life measured as the duration of effects on vertebral blood flow. As to the method:
Pharmacological experiment 3: Effect on vertebral blood flow Adult mongrel dogs were anesthetized with sodium pentobarbital (25 mg/kg, i.v.). The right vertebral artery was perfused and the blood flow was measured. Test compound was injected in the vertebral artery. […] Half-life (T 1/2, minute) was measured as the duration of effects.

For series [2], the system named is spontaneously hypertensive rats. Description: Effect on hypertension (tail cuff method). It is filed as in vivo, male spontaneously hypertensive rats. The conditions noted are these: 30 mg/kg orally. Here is the method:
Pharmacological experiment 5: Effect on hypertension
(§1) Each of 30 mg/kg of test compounds A and Q was orally administered to five male spontaneously hypertensive rats and the blood pressure was measured by the tail cuff method. The blood pressure lowering value after 1 hour administration of test compound A was 48 mmHg and that value after 5 hours administration of test compound Q was 64 mmHg. Pharmacological experiment 6: Anticholinergic activity

Series [3] has as its system coronary blood flow. Description: Effect on coronary blood flow. It is filed as in vivo, Adult mongrel dogs. As to the method: Pharmacological experiment 2: Effect on coronary blood flow Adult mongrel dogs were anesthetized with sodium pentobarbital (30 mg/kg, i.v.). According to the method of Yago et al described in Folia Pharmacol. Japon, vol. 57, 380 (1961), the left coronary artery was perfused and its blood flow was measured. […] The half-life (T 1/2, minute) was measured as the duration of effects.

Series [4] has as its system liver mitochondria. Description: Effect on lipid peroxidation (malondialdehyde formation in liver mitochondria, thiobarbituric acid method). The settings on record: 50% inhibitory concentration on the formation of malondialdehyde; ascorbic acid, ferrous sulfate; 25°C for 30 minutes. It is filed as biochemical, Male Sprague-Dawley rats. Here is the method: Pharmacological experiment 4: Effect on lipid peroxidation
Male Sprague-Dawley rats weighing 300-350 g were used. According to the method of Shimada et al described in Biochim. Biophys. Acta, vol. 572, 531 (1979), the liver mitochondria were isolated and ascorbic acid, ferrous sulfate, potassium chloride and Tris-HC1 buffer were added. To the solution was added test compound dissolved in dimethyl sulfoxide, and the mixture was incubated at 25°C for 30 minutes. The amount of malondialdehyde was determined by the thiobarbituric acid method and the 50% inhibitory concentration (IC50, µmol) of test compound on the formation of malondialdehyde was measured.

The subject of series [5] is Trachea of guinea pig. Description: Anticholinergic activity (ACh-contracted tracheal strip chain preparation). As to the method:
as §1
Trachea of guinea pig, weighing 380-550 g, was isolated and prepared its strip chain preparation. The preparation was mounted in organ bath filled with Krebs-Henseleit solution gassed with 95% 02 and 5% CO2. Length of the preparation was measured by isometric transducer (MEC, ME-4012). The preparation was contracted by 10^-6 M of acetylcholine (ACh) and then, test compounds were added cumulatively into the bath to observe relaxant effect.
(§2) Pharmacological experiment 7: Toxicity

Series [6] relates to ddY strain mice. It counts as in vivo. The settings on record: mouse, in vivo, po, 1000 mg/kg.
Description: as §2
Test compounds A, B, C, E and S were orally administered to five ddY strain mice.

Turning to `CCN(CC)Cc1cnc2n1C(c1cccc([N+](=O)[O-])c1)C(C(=O)OC(CN1CCCCC1)c1ccccc1)=C(C)N2` (single isomer, unassigned) [Compound Q, 2-Piperidino-1-phenylethyl 3-diethylaminomethyl-7-methyl-5-(3-nitrophenyl)-5,8-dihydroimidazo [1,2-a]pyrimidine-6-carboxylate (β-form)], in series [1], the “ED100” value was found to be 18 µg and the “T 1/2” value came to 4.0 min. Besides, the “blood pressure lowering value” in series [2] (after 5 hours) was 64 mmHg.
Turning to `CCN(CC)Cc1cnc2n1C(c1cccc([N+](=O)[O-])c1)C(C(=O)OC)=C(C)N2` (stereo not drawn) [Compound A, Methyl 3-diethylaminomethyl-7-methyl-5-(3-nitrophenyl)-5,8-dihydroimidazo[l,2-a]pyrimidine-6-carboxylate hydrochloride], in series [3] (dose required to increase the coronary blood flow by a half of the effects of nifedipine, injected into the coronary artery, anesthetized dogs), the “ED50” value amounted to 2 µg. Besides, the “T 1/2” value in series [3] (half-life measured as the duration of effects on coronary blood flow) is 1.0 min; in series [1], 0.9 min. In addition, the “ED100” value in series [1] came to 2 µg. The IC50 in series [4] came to 50 µM; in series [5] (Cavia porcellus, preparation contracted by 10^-6 M of acetylcholine (ACh), cumulative addition, read-out: 50% inhibitory concentration (IC50) on ACh-induced contraction), 1.6 µM. In series [2] (after 1 hour), the “blood pressure lowering value” was 48 mmHg. The “relaxant effect on ACh-contracted preparation” value in series [5] (10^-7-10^-5M) is “relaxed ACh-contracted preparation in a concentration-dependent manner”. The survival entry in series [6] was “All mice were survived”.
